Reference: ChEMBL document CHEMBL1201862, “PubChem BioAssay data set” (2004)
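Test compounds were applied to cells in 96-well plates for 48 hours at 5 doses. GI50: concentration for 50% inhibition of growth.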 Active and inactive are the calls of the source. Rule as the data show it: active = GI50 up to about 1.1 µM and inactive = higher.

Experiments:
Test in all cases: growth of human tumour cells (NCI), 48 h
NCI-H460 = system: NCI-H460
MOLT-4 = system: MOLT-4
M14 = system: M14
U-251 = system: U-251
SR = system: SR
NCI-H522 = system: NCI-H522
HOP-92 = system: HOP-92
SW-620 = system: SW-620
T47D = system: T47D
UO-31 = system: UO-31
DMS-114 = system: DMS-114
SN12C = system: SN12C
RPMI-8226 = system: RPMI-8226
MCF7 = system: MCF7
DU-145 = system: DU-145
MDA-MB-231 = system: MDA-MB-231
XF498 = system: XF498
SNB-19 = system: SNB-19
NCI-H226 = system: NCI-H226
LOX IMVI = system: LOX IMVI
CAKI-1 = system: CAKI-1
A498 = system: A498
DLD-1 = system: DLD-1
Hs-578T = system: Hs-578T
HCC 2998 = system: HCC 2998
IGROV-1 = system: IGROV-1
HCT-15 = system: HCT-15
MDA-N = system: MDA-N
DMS-273 = system: DMS-273
PC-3 = system: PC-3
RXF 631 = system: RXF 631
HCT-116 = system: HCT-116
RXF 393 = system: RXF 393
EKVX = system: EKVX
KM12 = system: KM12
SNB-75 = system: SNB-75
K562 = system: K562
SK-MEL-2 = system: SK-MEL-2
MDA-MB-435 = system: MDA-MB-435
SNB-78 = system: SNB-78
HOP-18 = system: HOP-18
SF-268 = system: SF-268
NCI/ADR-RES = system: NCI/ADR-RES
OVCAR-8 = system: OVCAR-8
SF-539 = system: SF-539
HT-29 = system: HT-29
BT-549 = system: BT-549
NCI-H23 = system: NCI-H23
SK-MEL-5 = system: SK-MEL-5
HL-60 = system: HL-60
LXFL 529 = system: LXFL 529
OVCAR-4 = system: OVCAR-4
A549 = system: A549
CCRF-CEM = system: CCRF-CEM
SF-295 = system: SF-295
786-0 = system: 786-0
M19-MEL = system: M19-MEL
OVCAR-5 = system: OVCAR-5
SK-OV-3 = system: SK-OV-3
KM-20L2 = system: KM-20L2
UACC-257 = system: UACC-257
SK-MEL-28 = system: SK-MEL-28
ACHN = system: ACHN
Malme-3M = system: Malme-3M
HOP-62 = system: HOP-62
COLO 205 = system: COLO 205
OVCAR-3 = system: OVCAR-3
UACC-62 = system: UACC-62
TK-10 = system: TK-10

## O=S(=O)(O)c1cc(/N=N/c2cc(S(=O)(=O)O)c3cccnc3c2O)ccc1/C=C/c1ccc(/N=N/c2cc(S(=O)(=O)O)c3cccnc3c2O)cc1S(=O)(=O)O
NCI-H460
  GI50: > 100 µM (inactive)
MOLT-4
  GI50: 20.4 µM (inactive)
M14
  GI50: 63.2 µM (inactive)
U-251
  GI50: > 100 µM (inactive)
SR
  GI50: 21.7 µM (inactive)
NCI-H522
  GI50: > 100 µM (inactive)
HOP-92
  GI50: > 72.4 µM (inactive)
SW-620
  GI50: > 100 µM (inactive)
T47D
  GI50: > 100 µM (inactive)
UO-31
  GI50: > 100 µM (inactive)
DMS-114
  GI50: > 100 µM (inactive)
SN12C
  GI50: > 100 µM (inactive)
RPMI-8226
  GI50: > 97.7 µM (inactive)
MCF7
  GI50: > 100 µM (inactive)
DU-145
  GI50: > 100 µM (inactive)
MDA-MB-231
  GI50: > 100 µM (inactive)
XF498
  GI50: > 100 µM (inactive)
SNB-19
  GI50: > 100 µM (inactive)
NCI-H226
  GI50: > 100 µM (inactive)
LOX IMVI
  GI50: > 94.8 µM (inactive)
CAKI-1
  GI50: > 100 µM (inactive)
A498
  GI50: > 100 µM (inactive)
DLD-1
  GI50: > 100 µM (inactive)
Hs-578T
  GI50: > 100 µM (inactive)
HCC 2998
  GI50: > 100 µM (inactive)
IGROV-1
  GI50: > 100 µM (inactive)
HCT-15
  GI50: > 100 µM
MDA-N
  GI50: > 100 µM (inactive)
DMS-273
  GI50: > 100 µM (inactive)
PC-3
  GI50: > 100 µM (inactive)
RXF 631
  GI50: > 100 µM (inactive)
HCT-116
  GI50: > 89.1 µM (inactive)
RXF 393
  GI50: > 31.6 µM (inactive)
EKVX
  GI50: > 100 µM (inactive)
KM12
  GI50: > 100 µM (inactive)
SNB-75
  GI50: > 100 µM (inactive)
K562
  GI50: 34 µM (inactive)
SK-MEL-2
  GI50: > 100 µM (inactive)
MDA-MB-435
  GI50: > 100 µM (inactive)
SNB-78
  GI50: > 100 µM (inactive)
HOP-18
  GI50: > 100 µM (inactive)
SF-268
  GI50: > 100 µM (inactive)
NCI/ADR-RES
  GI50: > 100 µM (inactive)
OVCAR-8
  GI50: > 100 µM (inactive)
SF-539
  GI50: > 100 µM (inactive)
HT-29
  GI50: > 100 µM (inactive)
BT-549
  GI50: > 100 µM (inactive)
NCI-H23
  GI50: > 100 µM (inactive)
SK-MEL-5
  GI50: > 100 µM (inactive)
HL-60
  GI50: 18.6 µM (inactive)
LXFL 529
  GI50: > 100 µM (inactive)
OVCAR-4
  GI50: > 100 µM (inactive)
A549
  GI50: > 100 µM (inactive)
CCRF-CEM
  GI50: 18.3 µM (inactive)
SF-295
  GI50: > 100 µM (inactive)
786-0
  GI50: > 100 µM (inactive)
M19-MEL
  GI50: > 100 µM (inactive)
OVCAR-5
  GI50: > 100 µM (inactive)
SK-OV-3
  GI50: > 100 µM (inactive)
KM-20L2
  GI50: > 66.5 µM (inactive)
UACC-257
  GI50: > 100 µM (inactive)
SK-MEL-28
  GI50: > 100 µM (inactive)
ACHN
  GI50: > 100 µM (inactive)
Malme-3M
  GI50: > 100 µM (inactive)
HOP-62
  GI50: > 100 µM (inactive)
COLO 205
  GI50: > 100 µM (inactive)
OVCAR-3
  GI50: > 100 µM (inactive)
UACC-62
  GI50: > 100 µM (inactive)
TK-10
  GI50: > 100 µM (inactive)
